This passage reports IC50 results from US10213451B2, “Methods and compounds for modulating the secretion or expression of adhesion proteins or angiopoietins of cells” (PACIFIC ARROW LIMITED, priority 2004, dated 2019).

SMILES strings stand for the structures. Converted amounts (≈) assume the structure as drawn.

One assay concerns ES2(ovarian) cells. The assay is described as follows: MTT assay ES2. Format: cell-based, human. Particulars: ES2 cells. How it is done: MTT Assay. The procedure for MTT assay followed the method described by Carmichael et al. (1987) with modifications. The cells were seeded into a 96-well plate at concentration of 10,000/well for HTB-9, HeLa, H460, HCT116, T98G and OVCAR-3), 15,000/well for DU145, MCF-7, HepG2 and U2OS), and 40,000/well for K562 for 24 hours before drug-treatment. The cells were then exposed to the drugs for 48 hours (72 hours for HepG2 and U2OS, and 96 hours for MCF-7). After the drug-treatment, MTT (0.5 mg/mL) was added to cultures and incubated for an hour. The formazan (product of the reduction of tetrazolium by viable cells) formed and was dissolved with DMSO and the O.D. at 490 nm, and was measured by an ELISA reader. The MTT level of the cells before drug-treatment was also measured (T0). The % cell-growth (% G) is calculated as: % G=(TD−T0/TC−T0)×100(1), where TC or TD represents O.D. readings of control or drug-treated cells. When T0>TD, then the cytotoxicity (LC) expressed as % of the control is calculated as: % LC=(TD−T0/T0)×100(2).
Methods: ES2 cells were exposed to (i) Xanifolia-Y with concentrations of 40, 20, 10, 5, 2.5, and 1.25 ug/ml; or (ii) Paclitaxel with concentrations of […]; or (iii) Combined Xanifolia-Y and Paclitaxel with concentrations of each drug in same order (for example, 40 ug/ml Y plus 10 ng/ml T; 20 ug/ml Y plus 5 ng/ml T, etc. please see FIG. 28). Cells growth under these conditions was determined by the MTT assay.
Drug-treatment: cells cultures were replaced with fresh RPMI medium containing Xanifolia-Y (10 ug/ml final concentration) or DMSO (as control) at 0 hour. At 2, and 18 hour, aliquot of culture medium was taken out for Fibronectin determination (Western blot method). Cell viability at 18 hours was determined by MTT assay. Cultures were replaced with RPMI medium with MTT and incubated for an hour. The formation of formazan was dissolved in DMSO and OD at 570 nm was measured.
With `CC1(C)CC2C3=CCC4C5(C)CCC(OC6OC(C(=O)O)C(O)C(OC7OCC(O)C(O)C7O)C6OC6OC(CO)C(O)C(O)C6O)C(C)(C)C5CCC4(C)C3(C)CC(O)C2(CO)C(O)C1OC1OCC(OC(=O)c2ccccc2)C(OC(=O)c2ccccc2)C1O` [Ba9, 3-O-[β-D-galactopyranosyl(1→2)]-β-D-xylopyranosyl (1→3)-β-D-glucuronopyranosyl-21-O-[3,4-dibenzoyl-β-D-xylopyranosyl]-3β, 15α, 21β, 22α, 28-pentahydroxyolean-12-ene], the IC50 was found to be 12 µg/mL (≈ 9.22 µM). In turn, `CC=C(C)C(=O)OC1C(OC(=O)C=Cc2ccccc2)C23C(O)CC4(C)C5(C)CCC6C(C)(C)C(OC7OC(C(=O)O)C(O)C(OC8OC(CO)C(O)C(O)C8OC8OC(C)C(O)C(O)C8OC8OC(C)C(O)C(O)C8O)C7OC7OC(CO)C(O)C(O)C7O)CCC6(C)C5CCC4(OC2O)C3CC1(C)C` (centres unmarked) [Mb1] had an IC50 of 8 µg/mL (≈ 5.29 µM). `CC1OC(OC2C(OC3C(OC4C(O)C(C(=O)O)OC(OC5CCC6(C)C(CCC7(C)C6CCC68OC(O)C9(C(O)CC76C)C(OC(=O)C=Cc6ccccc6)C(OC(=O)c6ccccc6)C(C)(C)CC98)C5(C)C)C4OC4OC(CO)C(O)C(O)C4O)OC(CO)C(O)C3O)OC(C)C(O)C2O)C(O)C(O)C1O` (centres unmarked) [Mb3] yielded an IC50 of 8 µg/mL (≈ 5.22 µM). Same read-out and setting: next, `CC1O[C@@H](OC2[C@H](OC3[C@H](O[C@H]4C(O[C@@H]5OC(CO)[C@H](O)[C@@H](O)C5O)[C@H](O[C@H]5CC[C@@]6(C)C(CC[C@]7(C)C6CC[C@]68O[C@H](O)[C@]9(C6CC(C)(C)[C@@H](OC(=O)c6ccccc6)[C@@H]9OC(=O)C=Cc6ccccc6)[C@H](O)[C@H](O)[C@]87C)[C@@]5(C)CO)OC(C(=O)O)[C@H]4O)OC(CO)[C@H](O)[C@H]3O)OC(C)[C@H](O)[C@@H]2O)C(O)[C@@H](O)[C@H]1O` (some centres unmarked) [Mb8]: 20 µg/mL (≈ 12.8 µM); `C/C=C(/C)C(=O)O[C@H]1[C@H](OC(C)=O)C(C)(C)CC2C3=CCC4[C@@]5(C)CC[C@H](O)C(C)(C)C5CC[C@@]4(C)[C@]3(C)C[C@@H](O)[C@]21CO` (some centres unmarked) [ACH-X]: 40 µg/mL (≈ 65.1 µM); `C/C=C(/C)C(=O)O[C@H]1[C@H](OC(=O)C(C)C)[C@@]2(CO)C(CC1(C)C)C1=CCC3[C@@]4(C)CC[C@H](O)C(C)(C)C4CC[C@@]3(C)[C@]1(C)[C@@H](O)[C@H]2O` (some centres unmarked) [ACH-Y0]: 20 µg/mL (≈ 30.4 µM). With `C/C=C(/C)C(=O)O[C@H]1[C@H](O)[C@@]2(COC(=O)C(C)CC)C(CC1(C)C)C1=CCC3[C@@]4(C)CC[C@H](O)C(C)(C)C4CC[C@@]3(C)[C@]1(C)[C@@H](O)[C@H]2O` (some centres unmarked) [ACH-Y7], the IC50 was determined as 65 µg/mL (≈ 96.6 µM). The compound `CC=C(C)C(=O)OC1C(OC(=O)C(C)=CC)C2(CO)C(O)CC3(C)C(=CCC4C5(C)CCC(O)C(C)(CO)C5CCC43C)C2CC1(C)C` (centres unmarked) [ACH-Y8] gave an IC50 of 35 µg/mL (≈ 52.2 µM). Same read-out and setting: the figure for `CC=C(C)C(=O)OC1C(OC(=O)c2ccccc2)C(C)(C)CC2C13C(O)CC1(C)C4(C)CCC5C(C)(C)C(OC6OC(C(=O)O)C(O)C(OC7OC(CO)C(O)C(O)C7OC7OC(C)C(O)C(O)C7OC7OC(C)C(O)C(O)C7O)C6OC6OC(CO)C(O)C(O)C6O)CCC5(C)C4CCC21OC3O` (centres unmarked) [Mb6] is 10 µg/mL (≈ 6.73 µM); for `C/C=C(/C)C(=O)O[C@H]1[C@H](OC(=O)/C(C)=C\C)[C@@]2(CO)C(CC1(C)C)C1=CCC3[C@@]4(C)CC[C@H](O)C(C)(C)C4CC[C@@]3(C)[C@]1(C)C[C@H]2O` (some centres unmarked) [ACH-Y10] it is 20 µg/mL (≈ 30.5 µM).

Still in this assay, the particulars now being: Homo sapiens, ES-2.
Compound `C/C=C(/C)C(=O)O[C@H]1[C@H](OC(=O)/C(C)=C/C)[C@@]2(CO)C(CC1(C)C)C1=CCC3[C@@]4(C)CC[C@H](O[C@@H]5OC(C(=O)O)[C@@H](O)C(O[C@@H]6OC[C@@H](O)C(O)C6O)C5O[C@@H]5OC(CO)[C@H](O)C(O)C5O)C(C)(C)C4CC[C@@]3(C)[C@]1(C)C[C@H]2O` (stereo partly drawn) [Xanifolia Z12, 3-O-[β-D-galactopyranosyl(1→2)]-β-D-xylopyranosyl (1→3)-β-D-glucuronopyranosyl-21-O-angeloyl, 22-O-tigloyl-3β, 16α, 21β, 22α, 28-pentahydroxyolean-12-ene] registered a 50% inhibitory concentration (IC50) of 16 µg/mL (≈ 14.2 µM).
